Laboratory results taken from paper PMC9454270, “Peptidomimetic Small-Molecule Inhibitors of 3CLPro Activity and Spike–ACE2 Interaction: Toward Dual-Action Molecules against Coronavirus Infections” (The Journal of Organic Chemistry, 2022).
*1 amine or outer side, *2 acyl side, *3 side chain or, on linkers, in order; H or OH if unused. Where a SMILES comes first, the peptide text is derived from it. [ ]: non-standard residue; d: D form. X1 = O=C1CCN([*:1])CCN1[C@@H](Cc1ccccc1)C(=O)[*:2]

Key:
SARS-CoV-2 infection = conditions: cited from earlier work
[1] = biological target: T1, 3CLPro enzyme, the main protease of SARS-CoV-2 (Severe acute respiratory syndrome coronavirus 2, UniProt P0DTD1); assay: biochemical; assay type: biochemical; conditions: for % In(3CLPro) at 100 μM: pH 7
T1 construct: 3CLPro enzyme, the main protease of SARS-CoV-2

[2] = biological target: SARS-CoV-2 spike/ACE2 complex (RBD of Spike S protein binding to human receptor ACE2) (Severe acute respiratory syndrome coronavirus 2, UniProt P0DTC2); assay: biochemical; design: species or system SARS-CoV-2 / human

Row | Compound | inhibition potency toward SARS-CoV-2 infection (SARS-CoV-2 infection) | IC50 [1] [µM] | % In(3CLPro) at 100 μM [1] | % In(spike–ACE2) at 100 μM [2] | IC50 [2] [µM]
1 | H-EDLFYQ-NH2 [EDLFYQ (SAP-6)] | millimolar range | – | – | – | –
2 | NC(=O)CC[C@H](NC(=O)[C@H](Cc1ccc(O)cc1)NC(=O)[C@H](Cc1ccccc1)N1CCN(C(=O)[C@H](CC(=O)O)NC(=O)[C@@H](N)CCC(=O)O)CCC1=O)C(N)=O [compound 16, H-ED(11b)YQ-NH2] (H-ED[X1]YQ-NH2) | – | 127 | 45–57% | 66–76% | 20
3 | NC(=O)CC[C@H](NC(=O)[C@H](Cc1ccc(O)cc1)NC(=O)[C@H](Cc1ccccc1)N1CCN(C(=O)[C@H](CC(=O)O)NC(=O)[C@@H](N)CCC(=O)O)CC1=O)C(N)=O [compound 15, H-ED(4b)YQ-NH2] | – | 15 | 90–91% | – | –
